Measurements: patent US20150045610A1, “METHOD OF MODIFYING SPERMATOGENESIS, SPERMIOGENESIS AND/OR FERTILITY IN MAMMALS” (Monell Chemical Senses Center, priority 2012, published 2015)

Target: T1, mouse sweet receptor (mT1R2/mT1R3) (Mus musculus, UniProt Q925D8)
T1 construct: expressed in transfected cells
T1 sequence (Q925D8 21-858): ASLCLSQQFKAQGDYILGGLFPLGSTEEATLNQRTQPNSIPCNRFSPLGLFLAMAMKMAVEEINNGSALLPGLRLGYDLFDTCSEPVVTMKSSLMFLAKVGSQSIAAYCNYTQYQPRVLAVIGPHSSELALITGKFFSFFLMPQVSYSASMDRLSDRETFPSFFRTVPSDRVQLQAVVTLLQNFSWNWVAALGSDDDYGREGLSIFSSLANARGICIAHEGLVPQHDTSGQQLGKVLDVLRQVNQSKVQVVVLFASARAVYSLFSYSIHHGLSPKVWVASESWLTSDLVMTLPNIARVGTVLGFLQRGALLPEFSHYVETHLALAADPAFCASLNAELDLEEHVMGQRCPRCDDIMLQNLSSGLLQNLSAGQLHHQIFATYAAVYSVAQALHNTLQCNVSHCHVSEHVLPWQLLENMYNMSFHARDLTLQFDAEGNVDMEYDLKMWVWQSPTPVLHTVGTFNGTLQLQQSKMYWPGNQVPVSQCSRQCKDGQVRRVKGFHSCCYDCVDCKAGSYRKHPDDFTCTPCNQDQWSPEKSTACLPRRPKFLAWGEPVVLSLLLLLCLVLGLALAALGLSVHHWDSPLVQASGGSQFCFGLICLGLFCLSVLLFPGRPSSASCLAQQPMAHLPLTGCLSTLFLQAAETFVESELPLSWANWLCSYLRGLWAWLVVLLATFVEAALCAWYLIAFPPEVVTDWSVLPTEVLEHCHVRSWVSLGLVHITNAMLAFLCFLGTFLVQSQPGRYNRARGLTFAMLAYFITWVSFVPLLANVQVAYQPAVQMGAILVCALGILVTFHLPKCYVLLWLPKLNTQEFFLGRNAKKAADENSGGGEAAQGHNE
T1 sequence (Q925I4 20-843 partner): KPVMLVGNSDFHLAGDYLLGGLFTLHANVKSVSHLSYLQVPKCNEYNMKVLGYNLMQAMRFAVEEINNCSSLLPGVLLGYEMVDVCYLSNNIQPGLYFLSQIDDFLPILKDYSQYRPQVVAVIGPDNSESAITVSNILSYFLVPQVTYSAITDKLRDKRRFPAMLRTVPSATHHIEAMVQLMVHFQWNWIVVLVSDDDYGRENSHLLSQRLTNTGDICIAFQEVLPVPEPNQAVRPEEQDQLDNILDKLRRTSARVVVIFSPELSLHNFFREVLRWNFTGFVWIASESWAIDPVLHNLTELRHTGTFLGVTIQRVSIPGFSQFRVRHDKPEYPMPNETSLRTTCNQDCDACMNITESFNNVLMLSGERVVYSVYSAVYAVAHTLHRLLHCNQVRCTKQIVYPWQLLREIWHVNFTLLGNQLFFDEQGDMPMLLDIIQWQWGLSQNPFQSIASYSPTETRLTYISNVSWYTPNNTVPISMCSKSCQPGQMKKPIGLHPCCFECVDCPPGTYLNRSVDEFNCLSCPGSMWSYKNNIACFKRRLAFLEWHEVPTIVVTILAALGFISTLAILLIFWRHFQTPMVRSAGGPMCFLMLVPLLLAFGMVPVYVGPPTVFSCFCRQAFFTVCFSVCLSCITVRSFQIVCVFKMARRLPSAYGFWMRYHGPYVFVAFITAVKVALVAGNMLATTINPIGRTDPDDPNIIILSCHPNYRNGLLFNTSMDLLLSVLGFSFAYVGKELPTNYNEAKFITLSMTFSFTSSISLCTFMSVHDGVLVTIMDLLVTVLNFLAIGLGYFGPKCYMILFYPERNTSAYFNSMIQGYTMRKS
Assay: sweet receptor inhibition assay, mouse receptor
Assay type: cell-based
From the text: The human T1R3 transmembrane domain determines sensitivity to lactisole, phenoxy herbicides, and fibrates. Inhibition of the receptor's response to sucralose occurred only in the presence of the transmembrane domain of human T1R3. […] Chimeric receptors of T1R3 contained the extracellular portion of human or mouse receptor and the transmembrane domain and C-terminal domain from mouse or human receptor: mh indicates the presence of the mouse extracellular domain and human transmembrane domain; hm indicates the presence of the human extracellular domain and mouse transmembrane domain.

Compound: CC(C)(Oc1ccc(Cl)cc1)C(=O)O [clofibric acid]
- effect on the mouse receptor: no effect
